The values that follow come from patent EP1591123A1, “USES OF NARINGENIN, NARINGIN AND SALTS THEREOF AS EXPECTORANTS IN THE TREATMENT OF COUGH, AND COMPOSITIONS THEREOF” (Su, Wei-wei, priority 2003, dated 2004).

“Also recorded” adds a separate entry of the source. Structures can show the parent of a compound that is named as a salt.

One series concerns NIH little mice. In words: Toxicological experiment, single oral dose, 10 days observation (Examples 32-35). The series is classed as in vivo. Particulars: for dosage without toxic reaction as multiple of the normal dosage: oral dosage tested relative to normal dose for human beings; for changes in little mice's weight / toxic reaction / deaths of little mice / pathological inspection of each apparatus: oral; for changes in little mice's weight / toxic reaction: ten days; for deaths of little mice / pathological inspection of each apparatus: tenth day. The protocol: With temperature in the range of 24±1 °C and humidity in the range of 65±5 %,choose 20 NIH little mice which are […] ,healthy and clean, male and female for each half ,their weights are between 20 and 22 gram.. Antisepsis the feed and water, before and in the layoff period of the test, all the mice should be feed under the normal feeding condition.
Dissolve Naringin in 0.5 % Tween80, the concentration is 300mg/ml,this liquor is given to little mice by oral access, the dosage is 0.2ml/20g weight of little mice. After administration ,they are observed for 1,4,8,12 hours, and then once per 12 hours. Observe the deaths of little mice ,and record the changes in little mice's weight as well as other symptoms. In the tenth day, kill little mice by breaking their necks, and take each apparatus for pathological inspection.
With temperature in the range of 25±1 °C and humidity in the range of 75±5 %,choose 20 NIH little mice which are […], healthy and clean, male and female for each half , their weights are between 18.5 and 20.5 gram.. Antisepsis the feed and water, before and in the layoff period of the test, all the mice should be feed under the normal feeding condition.
Dissolve Naringin sodium salt medicine in brine, the concentration is 300mg/ml, this liquor is given to little mice by oral access, the dosage is 0.2ml/20g weight of little mice. After administration ,they are observed for 1,4,8,12 hours, and then once per 12 hours. Observe the deaths of little mice, and record the changes in little mice's weights as well as other symptoms. In the tenth day, kill little mice by breaking their necks, and take each apparatus for pathological inspection.. […]

The subject of a further series is NIH mice. Put plainly: Antitussive test of Naringin, spraying with concentrated ammonia liquor (Example 28). The series is classed as in vivo. Particulars: for R Value: EDT50 of the treatment / EDT50 of the control x 100%; for EDT50: mice, intra-gastrointestinal, ammonia spray 1 hour after dosing. The source says: 1.Animals: As the stock animals, totally 130 NIH mice, male, each weighed 18.2~21.7g within ordinary standard. Weigh and number each mice accurately first, then pick out the 120 healthy ones who weighed in range from 18.5~21.0g. Ranked in weigh, they were divided into 8 groups in random with each 15. Set up reference groups of negative and positive, and sample groups of high-dose, mid-dose, low-dose Naringin and sodium Naringinate.
• 1) Blank control group: physiological saline, 0.9% NaCl; • 2) Positive control group: 30 mg dextromethorphan hydrobromide was weighed into a 20ml volumetric flask, and physiological saline was accurately added to the volume to obtain the solution for positive control at concentration of 5mg/ml° • 3) Group of low-dose sample Naringin: Proper amount of Naringin was weighed into a suitable volumetric flask, and physiological saline was added to the volume to obtain the solution at concentration of 0.5mg/ml. • 4) Group of mid-dose sample Naringin: Proper amount of Naringin was weighed into a suitable volumetric flask, and physiological saline was added to the volume to obtain the solution at concentration of 1.5mg/ml. • 5) Group of high-dose sample Naringin: Proper amount of Naringin was weighed into a suitable volumetric flask, and physiological saline was added to the volume to obtain the solution at concentration of 4.5mg/ml. • 6) Group of low-dose sample sodium Naringinate: Proper amount of sodium Naringin was weighed into a suitable volumetric flask, and physiological saline was added to the volume to obtain the solution at concentration of 0.5mg/ml. • 7) Group of mid-dose sample sodium Naringinate: Proper amount of sodium Naringin was weighed into a suitable volumetric flask, and physiological saline was added to the volume to obtain the solution at concentration of 1.5mg/ml. • 8) Group of high-dose sample sodium Naringinate: Proper amount of sodium Naringin was weighed into a suitable volumetric flask, and physiological saline was added to the volume to obtain the solution at concentration of4.5mg/ml.
One hour after intra-gastrointestinal administering for the mice, spray with concentrated ammonia liquor for certain intervals. Immediately the spraying was over, put away the mice outside and observe the tussive action. Mark down the times for which they coughed within 1 minute. Only when they coughed, which was characteristic of compression of abdomen or chest with their mouths open, and making coughing noise, for more than 3 times within a minute, tussive action could be admitted.
Calculate the median effective dose(EDT50) with sequential trials. Work out the amount of R with the formula below. If R is greater than 130%, it means the drug will be effective on antitussive action. If R is greater than 150%, it means the drug will be remarkably effective on antitussive action. The formula is shown as below: R =(EDT50 of the treatmnet)/(EDT50 of the control)× 100% [formula] EDT50=log-1c/n(n for amount of animals, c for summation of rx, r for amount of animals in each group, x for logarithm of the dose (time for spraying) )

The mark [1] stands for this setting: 0.2 ml/20g of 0.5 mg/ml, listed as sodium naringinate.
[2] abbreviates: 0.2 ml/20g of 1.5 mg/ml, listed as sodium naringinate.
Where [3] appears, read: 0.2 ml/20g of 4.5 mg/ml, listed as sodium naringinate.

Regarding `O=C1CC(c2ccc(O)cc2)Oc2cc(O)cc(O)c21` (stereo not drawn) [Naringenin, 4', 5, 7 -trihydroxyflavanone], the “dosage without toxic reaction as multiple of the normal dosage” value (shortened to “dosage without toxic reaction”) in the series on NIH little mice worked out at 460. For the same compound, in the series on NIH little mice (6.0g/kg), the “changes in little mice's weight” value is “weights of little mice are not found lightening”, the toxic reaction entry is “toxic reaction can't be found; also recorded: hasn't toxic reaction”, the “deaths of little mice” value is given as “all little mice are still alive” and the “pathological inspection of each apparatus” value (shortened to “pathological inspection”) is given as “pathological changes have not been found”.

In the case of `C[C@@H]1O[C@@H](O[C@H]2[C@H](Oc3cc(O)c4c(c3)O[C@H](c3ccc(O)cc3)CC4=O)O[C@H](CO)[C@@H](O)[C@@H]2O)[C@H](O)[C@H](O)[C@H]1O` [Naringin, 4', 5', 7-trihydroxyflavanone-7-rhamnoneglucoside], in the series with NIH mice (0.2 ml/20g of 0.5 mg/ml), the “Effect of relieving cough” value is “effective (If R is greater than 130%, it means the drug will be effective on antitussive action)”; the “R Value” stood at 139.21%; the EDT50 stood at 56.41 s. Besides, in the series on NIH mice (0.2 ml/20g of 1.5 mg/ml), the “Effect of relieving cough” value is listed as “remarkably effective (If R is greater than 150%, it means the drug will be remarkably effective on antitussive action)”; the “R Value” turned out to be 151.36%; the EDT50 was found to be 61.33 s. In the series on NIH mice (0.2 ml/20g of 4.5 mg/ml), the “Effect of relieving cough” value is reported as “remarkably effective (If R is greater than 150%, it means the drug will be remarkably effective on antitussive action)”; the “R Value” is recorded as 161.72%; the EDT50 came out at 65.53 s. The “resistance time against cough” value in the series on NIH mice (compared with dextromethorphan hydrobromide) is given as “remarkably longer”. The “dosage without toxic reaction” value in the series on NIH little mice amounted to 230. For the same compound, in the series on NIH little mice (3.0g/kg), the “changes in little mice's weight” value is given as “weights of little mice are not found lightening”, the toxic reaction result is “toxic reaction can't be found; also recorded: haven't toxic reaction”, the “deaths of little mice” value is given as “all little mice are still alive” and the “pathological inspection” value was “pathological changes have not been found”.

Regarding `O=C1C[C@@H](c2ccc(O)cc2)Oc2cc(O)cc(O)c21` [sodium salt of Naringenin], the “dosage without toxic reaction” value in the series on NIH little mice is given as 460. Also, in the series on NIH little mice (6.0g/kg), the “changes in little mice's weight” value is given as “weights of little mice are not found lightening”, the toxic reaction result is on record as “toxic reaction can't be found”, the “deaths of little mice” value is reported as “all the little mice are still alive” and the “pathological inspection” value is recorded as “pathological changes have not been found”.

With `C[C@@H]1O[C@@H](O[C@H]2[C@H](Oc3cc(O)c4c(c3)O[C@H](c3ccc(O)cc3)CC4=O)O[C@H](CO)[C@@H](O)[C@@H]2O)[C@H](O)[C@H](O)[C@H]1O` [sodium salt of Naringin], the “Effect of relieving cough” value in the series on NIH mice (0.2 ml/20g of 0.5 mg/ml) is recorded as “effective (If R is greater than 130%, it means the drug will be effective on antitussive action)”; in the series on NIH mice (0.2 ml/20g of 1.5 mg/ml), “remarkably effective (If R is greater than 150%, it means the drug will be remarkably effective on antitussive action)”; in the series on NIH mice (0.2 ml/20g of 4.5 mg/ml) it was “remarkably effective (If R is greater than 150%, it means the drug will be remarkably effective on antitussive action)”. Further, the “R Value” with NIH mice (setting [1]) came out at 142.35%; in the series with NIH mice (setting [2]) it was 155.84%; in the series with NIH mice (setting [3]), 163.94%. For the same compound, the values for the EDT50 in the series with NIH mice (setting [1]), in the series on NIH mice (setting [2]) and in the series on NIH mice (setting [3]) were 57.68 s, 63.15 s and 66.43 s, respectively. The “dosage without toxic reaction” value with NIH little mice was 230. Moreover, the “changes in little mice's weight” value in the series on NIH little mice (3.0g/kg) is “weights of little mice are not found lightening”. In addition, in the series with NIH little mice (3.0g/kg, listed as Naringin sodium salt), the toxic reaction result was “toxic reaction can't be found”. Moreover, the “deaths of little mice” value in the series on NIH little mice (3.0g/kg) is given as “all little mice are still alive”. For the same compound, the “pathological inspection” value in the series on NIH little mice (3.0g/kg) is listed as “pathological changes have not been found”.
